Data on six compounds can be found in patent US20240238423A9, “TETRAHYDROISOQUINOLINE HETEROBIFUNCTIONAL BCL-XL DEGRADERS” (Treeline Biosciences, Inc., priority 2022, published 2024).

Read-outs that look alike come from different tables or passages of the source.

This assay has as its target T1, Human BCL-XL protein (N-terminal HiBiT tagged BCL-XL in HT1080 cells) (Homo sapiens, UniProt Q07817).
T1 construct: expressed in transfected cells; host or cells: HT-1080 (ATCC CCL-121), stably transduced with lentivirus pLV-UBC-N-HiBiT-BCL-XL-PGK-puro and selected with puromycin
Put plainly: HiBiT based degradation assay. Conditions: HT1080 cells expressing HiBiT-BCL-XL; for Ymin (6 h) / Ymin (24 h): BCL-XL degradation normalized with DMSO control; for DC50: BCL-XL degradation. Type of assay: cell-based. In a few lines:
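This HiBiT degradation assay measured loss of BCL-XL in HT1080 cells that stably express an N-terminal HiBiT-BCL-XL fusion delivered by lentivirus. Cells were added to compound-spotted 384-well plates, and luminescence was read on a PHERAstar FSX reader. Signal was expressed relative to DMSO controls, curves were fitted by four-parameter logistic regression, and for hook-shaped curves the Ymin point served as the bottom plateau when calculating EC50.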

T1 sequence (Q07817 whole entry): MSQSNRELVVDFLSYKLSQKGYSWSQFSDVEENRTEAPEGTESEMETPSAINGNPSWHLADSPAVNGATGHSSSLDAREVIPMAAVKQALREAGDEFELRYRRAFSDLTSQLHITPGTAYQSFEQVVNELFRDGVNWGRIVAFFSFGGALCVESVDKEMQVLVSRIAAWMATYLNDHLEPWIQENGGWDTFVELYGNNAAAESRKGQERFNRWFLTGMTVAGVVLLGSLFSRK

As for `Cc1c(OCCO[C@@H]2C[C@H]3CC[C@@H](C2)N3CC(=O)Nc2ccc3c(C4CCC(=O)NC4=O)nn(C)c3c2)cccc1-c1ccc(N2CCc3cccc(C(=O)Nc4nc5ccccc5s4)c3C2)nc1C(=O)O` (stereo partly drawn) [Compound 174b, 6-(8-(benzo[d]thiazol-2-ylcarbamoyl)-3,4-dihydroisoquinolin-2(1H)-yl)-3-(3-(2-(((1R,3s,5S)-8-(2-((3-(2,6-dioxopiperidin-3-yl)-1-methyl-1H-indazol-6-yl)amino)-2-oxoethyl)-8-azabicyclo[3.2.1]octan-3-yl)oxy)ethoxy)-2-methylphenyl)picolinic acid], where the note is “6 h”, the “Ymin (6 h)” value is “C (Ymin ≥ 70%)”. For the same compound, under “24 h”, the “Ymin (24 h)” value was “B (50% ≤ Ymin < 70%)”. In addition, the DC50 is 100 to 1000 nM (6 h, read-out: EC50 (6 h)) and less than 100 nM (24 h, read-out: EC50 (24 h)).
As for `Cc1c(OCC[C@@H]2CCN(CC(=O)Nc3ccc4c(C5CCC(=O)NC5=O)nn(C)c4c3)C2)cccc1-c1ccc(N2CCc3cccc(C(=O)Nc4nc5ccccc5s4)c3C2)nc1C(=O)O` (stereo partly drawn) [Compound 219a, 6-[8-(1,3-benzothiazol-2-ylcarbamoyl)-3,4-dihydro-1H-isoquinolin-2-yl]-3-[3-[2-[(3S)-1-[2-[[3-(2,6-dioxo-3-piperidyl)-1-methyl-indazol-6-yl]amino]-2-oxo-ethyl]pyrrolidin-3-yl]ethoxy]-2-methyl-phenyl]pyridine-2-carboxylic acid], the “Ymin (24 h)” value (24 h) is “A (Ymin < 50%)”. Where the note is “24 h, read-out: EC50 (24 h)”, the DC50 is less than 100 nM.
In the case of `Cc1c(O[C@H]2CC[C@H](CCC(=O)N3CCC(c4cccc5c(C6CCC(=O)NC6=O)nn(C)c45)CC3)CC2)cccc1-c1ccc(N2CCc3cccc(C(=O)Nc4nc5ccccc5s4)c3C2)nc1C(=O)O` (stereo partly shown) [Compound 253a, 6-(8-(benzo[d]thiazol-2-ylcarbamoyl)-3,4-dihydroisoquinolin-2(1H)-yl)-3-(3-(((1r,4r)-4-(3-(4-(3-(2,6-dioxopiperidin-3-yl)-1-methyl-1H-indazol-7-yl)piperidin-1-yl)-3-oxopropyl)cyclohexyl)oxy)-2-methylphenyl)picolinic acid], the “Ymin (24 h)” value (24 h) is on record as “B (50% ≤ Ymin < 70%)”. The DC50 (24 h, read-out: EC50 (24 h)) lay in the range of 100 to 1000 nM.
Take `Cc1c(OCCC2CCN(CCN3CCC(c4ccc5c(C6CCC(=O)NC6=O)nn(C)c5c4)CC3)CC2)cccc1-c1ccc(N2CCc3cccc(C(=O)Nc4nc5ccccc5s4)c3C2)nc1C(=O)O` (stereo not shown) [Compound 248, 6-[8-(1,3-benzothiazol-2-ylcarbamoyl)-3,4-dihydro-1H-isoquinolin-2-yl]-3-[3-[2-[1-[2-[4-[3-(2,6-dioxo-3-piperidyl)-1-methyl-indazol-6-yl]-1-piperidyl]ethyl]-4-piperidyl]ethoxy]-2-methyl-phenyl]pyridine-2-carboxylic acid]: the “Ymin (24 h)” value (24 h) is given as “A (Ymin < 50%)”. Further, the DC50 (24 h, read-out: EC50 (24 h)) was less than 100 nM.
With `Cc1c(OCCCC2CCN(CC(=O)Nc3ccc4c(C5CCC(=O)NC5=O)nn(C)c4c3)CC2)cccc1-c1ccc(N2CCc3cccc(C(=O)Nc4nc5ccccc5s4)c3C2)nc1C(=O)O` (stereo not shown) [Compound 121, 6-(8-(Benzo[d]thiazol-2-ylcarbamoyl)-3,4-dihydroisoquinolin-2(1H)-yl)-3-(3-(3-(1-(2-((3-(2,6-dioxopiperidin-3-yl)-1-methyl-1H-indazol-6-yl)amino)-2-oxoethyl)piperidin-4-yl)propoxy)-2-methylphenyl)picolinic acid], for the setting “6 h”, the “Ymin (6 h)” value is reported as “A (Ymin < 50%)”. The “Ymin (24 h)” value (24 h) is recorded as “A (Ymin < 50%)”. For the same compound, the DC50 is, setting by setting: (6 h, read-out: EC50 (6 h)) less than 100 nM; (24 h, read-out: EC50 (24 h)) less than 100 nM.
Turning to `Cc1c(O[C@H]2CC[C@H](CCCCN3CCN(c4ccc5c(C6CCC(=O)NC6=O)nn(C)c5c4)C[C@H]3C(F)(F)F)CC2)cccc1-c1ccc(N2CCc3cccc(C(=O)Nc4nc5ccccc5s4)c3C2)nc1C(=O)O` (stereo partly drawn) [Compound 346b, 6-(8-(benzo[d]thiazol-2-ylcarbamoyl)-3,4-dihydroisoquinolin-2(1H)-yl)-3-(3-(((1r,4r)-4-(4-((2S)-4-(3-(2,6-dioxopiperidin-3-yl)-1-methyl-1H-indazol-6-yl)-2-(trifluoromethyl)piperazin-1-yl)butyl)cyclohexyl)oxy)-2-methylphenyl)picolinic acid], the “Ymin (24 h)” value (24 h) is recorded as “A (Ymin < 50%)”. The DC50 (24 h, read-out: EC50 (24 h)) is less than 100 nM.
